From patent US20110117171A1, “IMPLANTABLE BONE GRAFT MATERIALS” (AFFINERGY, INC., priority 2009, published 2011)
Ends that are not written are not given here. spacer = not defined here

Columns and labels:
[1] = test system: MSCs captured from bone marrow aspirate; test: Immunoreactivity of captured cells for surface antigens; format: cell-based, human; conditions: CD29(+), CD44(+), CD73(+), CD166(+), CD90(+), CD45(−), CD34(−)
Method: (§1) This experiment was performed to examine the ability of cell binding peptide SEQ ID NO: 4 to capture MSCs directly from bone marrow aspirate in comparison to two separate antibodies against the CD105 I antigen (CD105) and the MSCA-1 stem cell antigen (MSCA-1). This experiment employed biotinylated peptides with streptavidin-coated […] magnetic beads. The peptides were biotinylated as described herein at Example 2. […] For the antibody capture experiment, magnetic beads having covalently attached CD105 or MSCA-1 antibody were employed ([…]). Prior to incubation with the peptides and antibodies, bone marrow aspirate (BMA) was mixed with 5 volumes of 10 mM ammonium chloride for 1-2 min at room temperature to lyse red blood cells. The lysate was centrifuged for 5 min at 300×g and the supernatant discarded. The cell pellet was washed with wash buffer (PBS+0.5% bovine serum albumin+0.5 mM EDTA) and cells were resuspended in […] peptide at a concentration of 10^8 per mL. For peptide binding studies, the cell suspension was incubated with the biotinylated peptides for 30 min at 4° C. to allow for binding. After incubation, cells were spun down at 300×g for 5 min, and peptide solution was aspirated. Cells were then rinsed twice with wash buffer, with centrifugation between washes. […] Colony forming units (CFUs) were counted after 14 days in culture. […]

human MSCs [2] = test: Biotinylated peptide cell binding specificity by flow cytometry (Neutravidin-PE); conditions: 30 min at 4° C., FIG. 15
Text: (§2) The synthetic biotinylated cell binding peptide SEQ ID NO: 4 was examined for its ability to specifically bind MSCs compared to a number of other cells types including adipose-derived mesenchymal stem cells (ASCs), dermal fibroblasts, rodent MSCs, red blood cells, monocytes, lymphocytes and granulocytes. The cell binding peptide was biotinylated as described herein at Example 2. Cultured cells of each type were either purchased (ASCs and dermal fibroblasts) or isolated from rodent bone marrow (rodent MSCs) or human blood. Cells were first harvested and resuspended at 10^6/mL in PBS+2% fetal bovine serum (FBS). An aliquot of cells (50 μL) was incubated in 50 μL of peptide solution (25 μM in PBS+FBS) for 30 min at 4° C. Cells were then washed twice in PBS+FBS with 300×g centrifugation for 5 min between washes. Fluorescently-tagged neutravidin (Neutravidin-PE from INVITROGEN) was then added to the cells to label biotinylated peptide bound to cells. Neutravidin-PE was diluted 1:250 from stock and applied at 50 μL to cells. Cells were then washed in PBS+FBS, and acquired on a BD […]. Peptide reactivity was then measured as percent positivity relative to Neutravidin-PE staining without the addition of biotinylated peptide.

human ASCs = test: as above; conditions: 30 min at 4° C., FIG. 15
Text: as §2

[3] = test system: MSCs captured from bone marrow; test: Adipocyte differentiation of captured MSCs (Oil Red O); format: cell-based, human; conditions: 21 days in adipocyte differentiation medium, FIG. 20 A/B
Method: Adipocyte differentiation. After capture of MSCs using cell binding peptide SEQ ID NO: 4 with the […] magnetic system according to Example 6, the ability of the captured cells to differentiate into an adipocyte lineage was examined. The MSCs present in the […] column eluants (see Example 6) were cultured for 21 days in complete medium (DMEM, 10% FBS, 100 units/mL penicillin, 100 μg/mL streptomycin, and 2 mM glutamine) supplemented with 0.5 mM isobutyl methylxanthine, 1 μM dexamethasone, 10 μM insulin, 200 μM indomethacin, and 1% antibiotic/antimycotic. Following the 21 day incubation, the cells were fixed in 4% paraformaldehyde in PBS for 15 minutes, washed in 60% isopropanol for 5 minutes, and stained with Oil Red O (SIGMA) for 10 minutes to determine the extent of adipogenesis (see FIG. 20, panels A (undifferentiated MSCs) and panel B (adipocyte differentiated MSCs)). The image of the adipose differentiated cells (FIG. 20, panel B) contains a larger magnification inset where the lipid vacuoles are clearly visible.

[4] = test system: MSCs directly from bone marrow aspirate; test: Capture of MSCs from bone marrow aspirate, colony forming units after 14 days; format: cell-based, human; conditions: streptavidin-coated MILTENYI beads, FIG. 18
Method: as §1

dermal fibroblasts = test: Biotinylated peptide cell binding specificity by flow cytometry (Neutravidin-PE); set-up: species or system human; conditions: 30 min at 4° C., FIG. 15
Text: as §2

[5] = test system: MSCs captured from bone marrow; test: Chondrocyte differentiation of captured MSCs (aggrecan immunostaining); format: cell-based, human; conditions: 24 days in CHONDRODIFF medium, FIG. 21
Method: Chondrocyte differentiation. To examine chondrocyte differentiation, the MSCs present in the […] column eluants (see Example 6) were pelleted by centrifugation at 150×g for 5 minutes. Cells were washed once with 1 ml MACS NH CHONDRODIFF Medium without disturbing the pellet. Cells were spun again and 1 mL CHONDRODIFF Medium was added to each pellet. Every third day, medium was aspirated and replaced with fresh pre-warmed medium. After 24 days in culture, cells exposed to CHONDRODIFF medium formed cartilage plugs or nodules, whereas control cells formed only loose or small nodules. Cells were washed once with PBS and fixed in neutral buffered formalin overnight. Sections were embedded in paraffin and sectioned at 5 microns. Sections were examined by hemotoxylin and eosin staining (data not shown). Sections were further examined by immunostaining for aggrecan, a major structural component of cartilage. In FIG. 21, sections from the periphery (panels A and B) or center (panels C and D) were incubated with an antibody against aggrecan (ABCAM) (panels B and D) or with secondary detection reagents only as a control (panels A and C), then counterstained with DAPI to reveal cell nuclei. […] Control images of captured cells grown in the absence of differentiation medium could not be taken due to the small and loose nature of nodules.

[6] = test system: human MSCs from bone marrow aspirate; test: Capture of cultured MSCs with biotinylated peptide on […] streptavidin microbeads in LS columns; format: cell-based; conditions: 160,000 cultured human MSCs, peptide 20 μM on streptavidin microbeads, FIG. 16
Method: In this experiment the ability of the biotinylated cell binding peptide SEQ ID NO: 4 to capture human MSCs from a homogeneous cultured cell population was examined. The cell binding peptide SEQ ID NO: 4 was biotinylated as described herein at Example 2. The cell binding peptide SEQ ID NO: 4, and a non-binding control peptide, were added to separate 300 μl volumes of […] BIOTEC Streptavidin microbeads at a concentration of 20 μM. These beads are made from iron filings, coated with a dextran coating which is functionalized with streptavidin moieties. Peptide was incubated with beads for 45 min on ice. The 300 μl of peptide coated microbeads were added to pre-equilibrated LS columns outside of the magnetic field to evenly distribute the magnetic beads throughout the columns. Columns were then placed into a magnetic field, and excess peptide was washed away with buffer while retaining the peptide coated microbeads. Cultured and expanded human MSCs from bone marrow aspirate (160,000 cells; LONZA) were added to each LS column and allowed to pass through by gravity flow. Flowthrough was collected and cycled through the columns 5 times, after which the columns were washed with 5 ml buffer. […] The collected flowthrough with 5 ml wash and eluted cells were spun down, resuspended in a smaller volume, and counted by hemacytometer (see FIG. 16). […]

[7] = test system: MSCs captured from bone marrow; test: Osteoblast differentiation of captured MSCs (Alizarin Red S); format: cell-based, human; conditions: 14 days in osteoblast differentiation medium, FIG. 20 C/D
Method: Osteoblast differentiation. For osteogenic differentiation, the MSCs present in the […] column eluants (see Example 6) were cultured for 14 days in complete medium supplemented with 0.1 μM dexamethasone, 50 μM ascorbate-2-phosphate, 10 mM β-glycerophosphate, and 1% antibiotic/antimycotic. Calcium mineralization was measured by Alizarin Red S (SIGMA) staining to reveal mineralizing osteoblasts (see FIG. 20, panel C (undifferentiated MSCs) and panel D (osteoblast differentiated MSCs)).

human MSCs [8] = test: Capture of MSCs from a mixed cell population with peptide on CELLECTION magnetic beads; format: cell-based; conditions: starting mixture 38% IM9, 56% U937, 4% MSC; FIG. 17C
Text: In this experiment, biotinylated cell binding peptide, SEQ ID NO: 16, was attached to CELLECTION magnetic beads. The CELLECTION beads have streptavidin coupled to a magnetic particle through a DNA linker. Three different cell types, human MSCs, IM-9, and U937 cells were differentially labeled with […] dye and mixed in a ratio such that the MSCs represented ˜4% of the starting cell mixture (the percentage of each cell type in the starting mixture was 38% IM9, 56% U937, and 4% MSC). The cell binding peptide, SEQ ID NO: 16, was biotinylated as described herein at Example 2, as was a general cell binding peptide for use as a control peptide in the experiment. Magnetic particles with no peptide attached, as well as magnetic beads having attached either the cell binding peptide, SEQ ID NO: 16, or the control peptide were tested for their ability to capture human MSCs. The starting cell mixture was incubated with magnetic beads having either attached peptide or no peptide, the beads were washed, and the captured cells were released from the beads by DNase treatment. The cells were measured by flow cytometry histograms shown in 17A-17C. The magnetic beads without peptide captured little or no cells (FIG. 17B). The magnetic beads with attached cell binding peptide SEQ ID NO: 16 captured a cell population that was 96% MSCs (FIG. 17C).

| Sequence | immunoreactivity of isolated cells compared with CD105 isolated cells [1] | binding to human MSCs (percent positivity relative to Neutravidin-PE staining) (human MSCs [2]) | binding to human ASCs (percent positivity relative to Neutravidin-PE staining) (human ASCs) | adipogenesis of captured MSCs [3] | MSC capture (CFUs after 14 days in culture) [4] | binding to dermal fibroblasts (percent positivity relative to Neutravidin-PE staining) (dermal fibroblasts) | aggrecan in nodules formed from captured MSCs [5] | capture of the MSCs [6] | osteogenic differentiation of captured MSCs [7] | MSCs in captured cell population (human MSCs [8]) |
| --- | --- | --- | --- | --- | --- | --- | --- | --- | --- | --- |
| SSFWDVCQGDGTCYGGGSR (SSFWDVCQGDGTCYGGGSR-{spacer-biotin}; cysteine pairing not given here; reading uncertain; also: C-terminal spacer not given here) [SEQ ID NO: 4, tested biotinylated with a C-terminal spacer] | no changes were observed | high binding | high binding | adipogenesis pathway remains intact | as efficient as capture by either of the CD105 or MSCA-1 antibodies | high binding | aggrecan could be detected | approximately 70% | osteogenic pathway remains intact |  |
| SSFRFGPLGTWNYPSTDNAE (also: biotin, position not given here, on magnetic beads) [SEQ ID NO: 16, tested biotinylated on CELLECTION magnetic beads] |  |  |  |  |  |  |  |  |  | 96% |
